Where no end group is shown, it is not given here. The star is where a group is joined. 5FAM = O=C1OC2(c3ccc(O)cc3Oc3cc(O)ccc32)c2ccc(C(=O)*)cc21
Tests used:
[1] = test system: anti-FLAG M2 monoclonal antibody; assay: FPA analysis of FLAG model peptide tracers with anti-FLAG antibody; type: binding; conditions: TBS pH 7.2
From the text: The FLAG peptide (a well known tag, e.g. used for immuno affinity purification) was used as a model peptide to develop a labelling strategy for peptide tracers which allows chemical linking of a fluorophore to the peptide to reduce or inhibit rotation of the fluorophore relative to the peptide. The FLAG peptide and an elongated FLAG peptide were used to and coupled to 5-Carboxyfluorescein (5-CF) with a linker containing the following amino acid composition
FPA analysis of the FLAG Model peptide shown in Table 1 was performed by the following procedure.
The FLAG Model peptide tracers were diluted in TBS (containing 25 mM Tris, 0.15M NaCl, NP40 0.05%, pH 7.2) at a concentration of 8.1 nM or 2.7 nM, respectively in a single well of a black colored 96-well plate. The plate was incubated for 2 minutes at room temperature on an orbital shaker set at 1350 rpm and then incubated for another minute without shaking. Blank measurement of the sample was then performed by reading the fluorescence polarisation in a fluorescence reader (Safir2, Tecan, Switzerland) with excitation and emission wavelength set at 470 nm and 520 nm, respectively.
Then, 1, 3 or 10 molar equivalence of the anti-FLAG M2 monoclonal antibody (Sigma, Switzerland), respectively, were added and the plate was incubated at room temperature with shaking (1350 rpm) for 3 minutes and then for an additional minute without shaking. Then the plate was measured.
(§1) The mP values were calculated according to the following formula: […]
(§2) The ΔmP values were obtained by subtracting the mP values of the negative serum from the positive sera:
ΔmP=mPpositive serum−mPnegative serum

[2] = test system: Trichinella positive serum (antibodies against Trichinella); assay: FPA discrimination between Trichinella positive and Trichinella negative serum; type: binding; conditions: mP positive serum minus mP negative serum; tracer 5 nM; buffer differs per tracer as listed in Table 2
Protocol: Table 2 depicts for some of the Trichinella peptides their ability to discriminate between a Trichinella positive and a Trichinella negative serum sample using fluorescence polarisation assay (FPA).
FPA analysis of the tracers shown in Table 2 was performed by the following procedure. A […] aliquot of the positive or negative serum was diluted with […] of buffer (PBS with detergent as indicated in Table 2) in a single well of a black coloured 96-well plate. The plate was incubated for 2 minutes at room temperature on an orbital shaker set at 1350 rpm and then incubated for another minute without shaking. Blank measurement of the sample was then performed by reading the fluorescence polarisation in a fluorescence reader (Safire2, Tecan, Switzerland) with excitation and emission wavelength set at 470 nm and 520 nm, respectively. Then, […] tracer was added to the reaction mixture to a final concentration of 5 nM and the plate was incubated at room temperature with shaking (1350 rpm) for 15 minutes and then for an additional minute without shaking. Then the plate was measured.
as §1, §2
ΔmP=mPpositive serum=mPnegative serum

[3] = test system: Trichinella positive sera (antibodies against Trichinella); assay: ELISA discrimination between Trichinella positive and negative serum using SS2 peptides; type: binding, pig; conditions: peptide-coated plate; serial two fold dilutions of serum; read at 405 nm; FIGS. 8a and b
Protocol: FIGS. 8a and b show the results of 2 of the preferred SS2 peptides (SEQ IDs NO 7 and 8) tested in ELISA assays. […] Serial two fold dilutions of the serum sample were tested.
Single wells of a 96-well microtitre plate were coated with the SS2 peptides ([…]) at a concentration of […] in carbonate buffer 0.1 M (pH 9.5) overnight at 4° C. The plate was washed 4 times with 0.05% Tween 80 and then blocked with a PBS buffer containing 2% I-block and 0.1% Tween 20 for 90 minutes at 25° C.±3° C. Pig sera were diluted 50-fold in phosphate buffered saline and serial 2-fold dilutions were incubated in the microtitre plate with shaking (500 rpm) for 2 hours at room temperature. The plates were washed 4 times with 0.05% Tween 80 Detection of the bound antibodies was performed by incubation with a goat anti-pig IgG(Fc)-POD conjugate (Bethyl Laboratories, USA) at a concentration of 1.3 ug/ml for 1 h at RT with shaking (500 rpm). Following four more washes, 2′-azino-bis(3-ethylbenzthiazoline-6-sulphonic acid) (ABTS) substrate solution was added and incubated for 30 minutes, colour development was measured in a ELISA reader (Tecan, Switzerland) at a wavelength of 405 nm.

5-CF-Pro-Gly(9)-FLAG [4] = assay: fluorescence polarisation assay; tracer 2.7 nM, 1 molar equivalent of antibody
5-CF-Trp(2)-Gly(9)-FLAG [5] = assay: as above
5-CF-Trp-Gly(9)-FLAG [6] = assay: as above
5-CF-Pro-Gly(9)-FLAG [7] = assay: fluorescence polarisation assay; tracer 8.1 nM, 1 molar equivalent of antibody
5-CF-Trp(2)-Gly(9)-FLAG [8] = assay: as above
5-CF-Trp-Gly(9)-FLAG [9] = assay: as above
5-CF-Pro-Gly(9)-FLAG [10] = assay: fluorescence polarisation assay; tracer 2.7 nM, 3 molar equivalents of antibody
5-CF-Trp(2)-Gly(9)-FLAG [11] = assay: as above
5-CF-Trp-Gly(9)-FLAG [12] = assay: as above
5-CF-Pro-Gly(9)-FLAG [13] = assay: fluorescence polarisation assay; tracer 8.1 nM, 3 molar equivalents of antibody
5-CF-Trp(2)-Gly(9)-FLAG [14] = assay: as above
5-CF-Trp-Gly(9)-FLAG [15] = assay: as above
5-CF-Pro-Gly(9)-FLAG [16] = assay: fluorescence polarisation assay; tracer 2.7 nM, 10 molar equivalents of antibody
5-CF-Trp(2)-Gly(9)-FLAG [17] = assay: as above
5-CF-Trp-Gly(9)-FLAG [18] = assay: as above
5-CF-Pro-Gly(9)-FLAG [19] = assay: fluorescence polarisation assay; tracer 8.1 nM, 10 molar equivalents of antibody
5-CF-Trp(2)-Gly(9)-FLAG [20] = assay: as above
5-CF-Trp-Gly(9)-FLAG [21] = assay: as above
[22] = tracer 2.7 nM, 1 molar equivalent anti-FLAG antibody
[23] = tracer 2.7 nM, 3 molar equivalents anti-FLAG antibody
[24] = tracer 2.7 nM, 10 molar equivalents anti-FLAG antibody
[25] = tracer 8.1 nM, 1 molar equivalent anti-FLAG antibody
[26] = tracer 8.1 nM, 3 molar equivalents anti-FLAG antibody
[27] = tracer 8.1 nM, 10 molar equivalents anti-FLAG antibody

## 5-CF-Pro-Gly(9)-Asp-Tyr-Lys-Asp-Asp-Asp-Asp-Lys [S-CF-Pro-Gly(9)-FLAG]
[1]; [22]
  ΔmP values: 5 mP
[1]; [23]
  ΔmP values: 15 mP
[1]; [24]
  ΔmP values: 33 mP
[1]; [25]
  ΔmP values: 14 mP
[1]; [26]
  ΔmP values: 33 mP
[1]; [27]
  ΔmP values: 62 mP

## 5-CF-Trp(2)-Gly(9)-Asp-Tyr-Lys-Asp-Asp-Asp-Asp-Lys (5FAM-WWGGGGGGGGGDYKDDDDK) [5-CF-Trp(2)-Gly(9)-FLAG, FLAG model peptide tracer coupled to 5-Carboxyfluorescein via Trp-Trp linker]
[1]; [22]
  ΔmP values: 5 mP
[1]; [23]
  ΔmP values: 35 mP
[1]; [24]
  ΔmP values: 97 mP
[1]; [25]
  ΔmP values: 37 mP
[1]; [26]
  ΔmP values: 78 mP
[1]; [27]
  ΔmP values: 124 mP

## 5-CF-Trp-Gly(9)-Asp-Tyr-Lys-Asp-Asp-Asp-Asp-Lys (5FAM-WGGGGGGGGGDYKDDDDK) [5-CF-Trp-Gly(9)-FLAG, FLAG model peptide tracer coupled to 5-Carboxyfluorescein via Trp linker]
[1]; [22]
  ΔmP values: 9 mP
[1]; [23]
  ΔmP values: 27 mP
[1]; [24]
  ΔmP values: 55 mP
[1]; [25]
  ΔmP values: 19 mP
[1]; [26]
  ΔmP values: 50 mP
[1]; [27]
  ΔmP values: 86 mP

## ALRLKRFAK (listed as Trichinella spiralis) [SEQ ID NO 28, peptide of Trichinella spiralis 53 kDa excretory/secretory antigen]
[2]
  ΔmP: 41 mP

## KEADKSALRLKRFAKPPKGFF (KEADKSALRLKRFAKPPKGFF; listed as Trichinella spiralis) [SEQ ID NO 27, peptide of Trichinella spiralis 53 kDa excretory/secretory antigen]
[2]
  ΔmP: 31 mP

## KPFGDEIDRI LRKAF (KPFGDEIDRILRKAF; listed as Trichinella spiralis) [SEQ ID NO 26, peptide of Trichinella spiralis 53 kDa excretory/secretory antigen]
[2]
  ΔmP: 31 mP

## LSTASRPTNPYTGSRPTSPSSGSRP (LSTASRPTNPYTGSRPTSPSSGSRP; listed as Trichinella spiralis) [SEQ ID NO 7, peptide of Trichinella spiralis newborn larvae-specific protein SS2]
[2]
  ΔmP: 20 mP
[3]
  ability to discriminate between negative and positive sera in ELISA: able to discriminate between negative and positive sera

## MHKITHKSIVSRHTFAVYLLVSGQK (MHKITHKSIVSRHTFAVYLLVSGQK; listed as Trichinella spiralis) [SEQ ID NO 5, peptide of Trichinella spiralis newborn larvae-specific protein SS2; used as FPA tracer]
[2]
  ΔmP: 39 mP

## NNYRGRQGIA GLGML (NNYRGRQGIAGLGML; listed as Trichinella spiralis) [SEQ ID NO 23, peptide of Trichinella spiralis 53 kDa excretory/secretory antigen]
[2]
  ΔmP: 23 mP

## PTYPSSGSRP TYPSSGSRP (PTYPSSGSRPTYPSSGSRP; listed as Trichinella spiralis) [SEQ ID NO 9, peptide of Trichinella spiralis newborn larvae-specific protein SS2]
[2]
  ΔmP: 66 mP

## PTYPSSGSRPTYPSSGSRPTYPYTG (PTYPSSGSRPTYPSSGSRPTYPYTG; listed as Trichinella spiralis) [SEQ ID NO 8, peptide of Trichinella spiralis newborn larvae-specific protein SS2]
[2]
  ΔmP: 66 mP
[3]
  ability to discriminate between negative and positive sera in ELISA: able to discriminate between negative and positive sera

## QNERQFDENK LKKLLKPLG (QNERQFDENKLKKLLKPLG; listed as Trichinella spiralis) [SEQ ID NO 20, peptide of Trichinella spiralis 53 kDa excretory/secretory antigen]
[2]
  ΔmP: 28 mP

## QNERQFDENKLKKLLKPLGKLYKTPSD (QNERQFDENKLKKLLKPLGKLYKTPSD; listed as Trichinella spiralis) [SEQ ID NO 19, peptide of Trichinella spiralis 53 kDa excretory/secretory antigen]
[2]
  ΔmP: 33 mP

## VGGTDVRPHSH PWQIQLLKSET G (VGGTDVRPHSHPWQIQLLKSETG; listed as Trichinella spiralis) [SEQ ID NO 6, peptide of Trichinella spiralis newborn larvae-specific protein SS2; used as FPA tracer]
[2]
  ΔmP: 35 mP

## VVTIFRKNGK TTEVLSL (VVTIFRKNGKTTEVLSL; listed as Trichinella spiralis) [SEQ ID NO 24, peptide of Trichinella spiralis 53 kDa excretory/secretory antigen]
[2]
  ΔmP: 57 mP

## VVYSKTSSSR LEMYGSF (VVYSKTSSSRLEMYGSF; listed as Trichinella spiralis) [SEQ ID NO 16, peptide of Trichinella spiralis 43 kDa secreted glycoprotein]
[2]
  ΔmP: 20 mP

## anti-FLAG M2 monoclonal antibody (Sigma, Switzerland)
5-CF-Pro-Gly(9)-FLAG [4]
  ΔmP: 5 mP
5-CF-Trp(2)-Gly(9)-FLAG [5]
  ΔmP: 5 mP
5-CF-Trp-Gly(9)-FLAG [6]
  ΔmP: 9 mP
5-CF-Pro-Gly(9)-FLAG [7]
  ΔmP: 14 mP
5-CF-Trp(2)-Gly(9)-FLAG [8]
  ΔmP: 37 mP
5-CF-Trp-Gly(9)-FLAG [9]
  ΔmP: 19 mP
5-CF-Pro-Gly(9)-FLAG [10]
  ΔmP: 15 mP
5-CF-Trp(2)-Gly(9)-FLAG [11]
  ΔmP: 35 mP
5-CF-Trp-Gly(9)-FLAG [12]
  ΔmP: 27 mP
5-CF-Pro-Gly(9)-FLAG [13]
  ΔmP: 33 mP
5-CF-Trp(2)-Gly(9)-FLAG [14]
  ΔmP: 78 mP
5-CF-Trp-Gly(9)-FLAG [15]
  ΔmP: 50 mP
5-CF-Pro-Gly(9)-FLAG [16]
  ΔmP: 33 mP
5-CF-Trp(2)-Gly(9)-FLAG [17]
  ΔmP: 97 mP
5-CF-Trp-Gly(9)-FLAG [18]
  ΔmP: 55 mP
5-CF-Pro-Gly(9)-FLAG [19]
  ΔmP: 62 mP
5-CF-Trp(2)-Gly(9)-FLAG [20]
  ΔmP: 124 mP
5-CF-Trp-Gly(9)-FLAG [21]
  ΔmP: 86 mP

— patent US20100190182A1, “DIAGNOSTIC COMPOSITION AND METHOD FOR THE DETECTION OF A TRICHINELLA INFECTION” (priority 2007, published 2010)
